Assay results published in article PMC9963398, “Discovery of New Quinolone-Based Diarylamides as Potent B-RAF^V600E/C-RAF Kinase Inhibitors Endowed with Promising In Vitro Anticancer Activity” (International Journal of Molecular Sciences, 2023).

Columns and labels:
PC-3 = experiment: cells; details: Homo sapiens
Experimental: (§1) The anticancer screening of target compounds over a full panel of 60 human cancer cell lines was carried out using Sulforhodamine B (SRB) assay at the National Cancer Institute (NCI), Bethesda, Maryland, USA, employing the standard protocol.

MDA-MB-231/ATCC = experiment: cells; details: Homo sapiens
Experimental: as §1

MDA-MB-468 = experiment: cells; details: Homo sapiens
Experimental: as §1

TK-10 = experiment: NCI-60 five-dose SRB assay; type: cell-based; details: Homo sapiens; TK-10, Renal cancer, five-dose test
Experimental: as §1

KM12 = experiment: NCI-60 five-dose SRB assay; type: cell-based; details: Homo sapiens; KM12, Colon cancer, five-dose test
Experimental: as §1

T-47D = experiment: NCI-60 five-dose SRB assay; type: cell-based; details: Homo sapiens, T47D, Breast cancer, five-dose test
Experimental: as §1

DU-145 = experiment: NCI-60 five-dose SRB assay; type: cell-based; details: Homo sapiens; DU-145, Prostate cancer, five-dose test
Experimental: as §1

A549/ATCC = experiment: NCI-60 five-dose SRB assay; type: cell-based; details: Homo sapiens, NSCL cancer, five-dose test
Experimental: as §1

HT29 = experiment: NCI-60 five-dose SRB assay; type: cell-based; details: Homo sapiens, HT-29; HT29, Colon cancer, five-dose test
Experimental: as §1

HS 578T = experiment: NCI-60 five-dose SRB assay; type: cell-based; details: Homo sapiens, Breast cancer, five-dose test
Experimental: as §1

SNB-19 = experiment: NCI-60 five-dose SRB assay; type: cell-based; details: Homo sapiens; SNB-19, CNS cancer, five-dose test
Experimental: as §1

HOP-92 = experiment: NCI-60 five-dose SRB assay; type: cell-based; details: Homo sapiens; HOP-92, NSCL cancer, five-dose test
Experimental: as §1

SK-OV-3 = experiment: NCI-60 five-dose SRB assay; type: cell-based; details: Homo sapiens; SK-OV-3, Ovarian cancer, five-dose test
Experimental: as §1

SF-268 = experiment: NCI-60 five-dose SRB assay; type: cell-based; details: Homo sapiens; SF-268, CNS cancer, five-dose test
Experimental: as §1

HCC-2998 = experiment: NCI-60 five-dose SRB assay; type: cell-based; details: Homo sapiens; HCC-2998, Colon cancer, five-dose test
Experimental: as §1

OVCAR-5 = experiment: NCI-60 five-dose SRB assay; type: cell-based; details: Homo sapiens; OVCAR-5, Ovarian cancer, five-dose test
Experimental: as §1

SNB-75 = experiment: NCI-60 five-dose SRB assay; type: cell-based; details: Homo sapiens; SNB-75, CNS cancer, five-dose test
Experimental: as §1

HOP-62 = experiment: NCI-60 five-dose SRB assay; type: cell-based; details: Homo sapiens; HOP-62, NSCL cancer, five-dose test
Experimental: as §1

NCI-H23 = experiment: NCI-60 five-dose SRB assay; type: cell-based; details: Homo sapiens; NCI-H23, NSCL cancer, five-dose test
Experimental: as §1

OVCAR-8 = experiment: NCI-60 five-dose SRB assay; type: cell-based; details: Homo sapiens; OVCAR-8, Ovarian cancer, five-dose test
Experimental: as §1

CAKI-1 = experiment: NCI-60 five-dose SRB assay; type: cell-based; details: Homo sapiens; CAKI-1, Renal cancer, five-dose test
Experimental: as §1

SN12C = experiment: NCI-60 five-dose SRB assay; type: cell-based; details: Homo sapiens, Renal cancer, five-dose test
Experimental: as §1

MDA-MB-435 = experiment: NCI-60 five-dose SRB assay; type: cell-based; details: Homo sapiens; MDA-MB-435, Melanoma, five-dose test
Experimental: as §1

MALME-3M = experiment: NCI-60 five-dose SRB assay; type: cell-based; details: Homo sapiens, Melanoma, five-dose test
Experimental: as §1

SW-620 = experiment: NCI-60 five-dose SRB assay; type: cell-based; details: Homo sapiens; SW-620, Colon cancer, five-dose test
Experimental: as §1

LOX IMVI = experiment: NCI-60 five-dose SRB assay; type: cell-based; details: Homo sapiens, Melanoma, five-dose test
Experimental: as §1

BT-549 = experiment: NCI-60 five-dose SRB assay; type: cell-based; details: Homo sapiens; BT-549, Breast cancer, five-dose test
Experimental: as §1

OVCAR-4 = experiment: NCI-60 five-dose SRB assay; type: cell-based; details: Homo sapiens; OVCAR-4, Ovarian cancer, five-dose test
Experimental: as §1

EKVX = experiment: NCI-60 five-dose SRB assay; type: cell-based; details: Homo sapiens, NSCL cancer, five-dose test
Experimental: as §1

U251 = experiment: NCI-60 five-dose SRB assay; type: cell-based; details: Homo sapiens, U-251; U251, CNS cancer, five-dose test
Experimental: as §1

M14 = experiment: NCI-60 five-dose SRB assay; type: cell-based; details: Homo sapiens; M14, Melanoma, five-dose test
Experimental: as §1

MOLT-4 = experiment: NCI-60 five-dose SRB assay; type: cell-based; details: Homo sapiens; MOLT-4, Leukemia, five-dose test
Experimental: as §1

RXF 393 = experiment: NCI-60 five-dose SRB assay; type: cell-based; details: Homo sapiens; RXF 393, Renal cancer, five-dose test
Experimental: as §1

UACC-257 = experiment: NCI-60 five-dose SRB assay; type: cell-based; details: Homo sapiens; UACC-257, Melanoma, five-dose test
Experimental: as §1

RPMI-8226 = experiment: NCI-60 five-dose SRB assay; type: cell-based; details: Homo sapiens; RPMI-8226, Leukemia, five-dose test
Experimental: as §1

COLO 205 = experiment: NCI-60 five-dose SRB assay; type: cell-based; details: Homo sapiens; COLO 205, Colon cancer, five-dose test
Experimental: as §1

UO-31 = experiment: NCI-60 five-dose SRB assay; type: cell-based; details: Homo sapiens; UO-31, Renal cancer, five-dose test
Experimental: as §1

HL-60(TB) = experiment: NCI-60 five-dose SRB assay; type: cell-based; details: Homo sapiens, Leukemia, five-dose test
Experimental: as §1

SF-295 = experiment: NCI-60 five-dose SRB assay; type: cell-based; details: Homo sapiens; SF-295, CNS cancer, five-dose test
Experimental: as §1

UACC-62 = experiment: NCI-60 five-dose SRB assay; type: cell-based; details: Homo sapiens; UACC-62, Melanoma, five-dose test
Experimental: as §1

ACHN = experiment: NCI-60 five-dose SRB assay; type: cell-based; details: Homo sapiens, Renal cancer, five-dose test
Experimental: as §1

OVCAR-3 = experiment: NCI-60 five-dose SRB assay; type: cell-based; details: Homo sapiens; OVCAR-3, Ovarian cancer, five-dose test
Experimental: as §1

IGROV1 = experiment: NCI-60 five-dose SRB assay; type: cell-based; details: Homo sapiens, IGROV-1; IGROV1, Ovarian cancer, five-dose test
Experimental: as §1

CN1CCN(Cc2ccc(C(=O)Nc3cccc(Nc4ccc5cc(O)ccc5n4)c3)cc2C(F)(F)F)CC1 [Compound 18a, N-(3-((6-hydroxyquinolin-2-yl)amino)phenyl)-4-((4-methylpiperazin-1-yl)methyl)-3-(trifluoromethyl)benzamide]
GI50 (PC-3): 4.68 µM | GI50 (MDA-MB-231/ATCC): 2.54 µM | GI50 (MDA-MB-468): 2.23 µM | GI50 (TK-10): 21.4 µM | GI50 (KM12): 3.16 µM | GI50 (T-47D): 14.6 µM | GI50 (DU-145): 10.5 µM | GI50 (A549/ATCC): 8.7 µM | GI50 (HT29): 3.37 µM | GI50 (HS 578T): 4.17 µM | GI50 (SNB-19): 13.8 µM | GI50 (HOP-92): 3.39 µM | GI50 (SK-OV-3): 16.5 µM | GI50 (SF-268): 10.4 µM | GI50 (HCC-2998): 2.39 µM | GI50 (OVCAR-5): 14.2 µM | GI50 (SNB-75): 0.656 µM | GI50 (HOP-62): 12.1 µM | GI50 (NCI-H23): 13.9 µM | GI50 (OVCAR-8): 13.2 µM | GI50 (CAKI-1): 11.9 µM | GI50 (SN12C): 14.1 µM | GI50 (MDA-MB-435): 8.53 µM | GI50 (MALME-3M): 1.59 µM | GI50 (SW-620): 2.3 µM | GI50 (LOX IMVI): 1.73 µM | GI50 (BT-549): 12.2 µM | GI50 (OVCAR-4): 11.2 µM | GI50 (EKVX): 14.2 µM | GI50 (U251): 2.17 µM | GI50 (M14): 9.06 µM | GI50 (MOLT-4): 3.52 µM | GI50 (RXF 393): 3.55 µM | GI50 (UACC-257): 7.35 µM | GI50 (RPMI-8226): 2.65 µM | GI50 (COLO 205): 10.2 µM | GI50 (UO-31): 13.4 µM | GI50 (HL-60(TB)): 2.58 µM | GI50 (SF-295): 2.33 µM | GI50 (UACC-62): 15.4 µM | GI50 (ACHN): 7.59 µM | GI50 (OVCAR-3): 11.2 µM | GI50 (IGROV1): 16.6 µM

COc1cccc2nc(Nc3cccc(NC(=O)c4ccc(CN5CCCN(C)CC5)c(C(F)(F)F)c4)c3)ccc12 [Compound 14b, N-(3-((5-methoxyquinolin-2-yl)amino)phenyl)-4-((4-methyl-1,4-diazepan-1-yl)methyl)-3-(trifluoromethyl)benzamide]
GI50 (PC-3): 1.54 µM | GI50 (MDA-MB-231/ATCC): 1.83 µM | GI50 (MDA-MB-468): 1.56 µM | GI50 (TK-10): 4.91 µM | GI50 (KM12): 2.49 µM | GI50 (T-47D): 5.43 µM | GI50 (DU-145): 2.19 µM | GI50 (A549/ATCC): 1.9 µM | GI50 (HT29): 1.66 µM | GI50 (HS 578T): 2.46 µM | GI50 (SNB-19): 1.72 µM | GI50 (SK-OV-3): 4.33 µM | GI50 (SF-268): 1.77 µM | GI50 (HCC-2998): 1.71 µM | GI50 (OVCAR-5): 1.71 µM | GI50 (SNB-75): 1.52 µM | GI50 (HOP-62): 1.76 µM | GI50 (NCI-H23): 1.68 µM | GI50 (OVCAR-8): 2.03 µM | GI50 (CAKI-1): 1.72 µM | GI50 (SN12C): 1.63 µM | GI50 (MDA-MB-435): 1.8 µM | GI50 (MALME-3M): 1.72 µM | GI50 (SW-620): 1.75 µM | GI50 (LOX IMVI): 1.68 µM | GI50 (BT-549): 2.06 µM | GI50 (OVCAR-4): 2.67 µM | GI50 (EKVX): 1.72 µM | GI50 (U251): 1.76 µM | GI50 (M14): 1.81 µM | GI50 (MOLT-4): 1.24 µM | GI50 (RXF 393): 1.66 µM | GI50 (UACC-257): 1.86 µM | GI50 (RPMI-8226): 1.93 µM | GI50 (COLO 205): 1.81 µM | GI50 (UO-31): 1.74 µM | GI50 (HL-60(TB)): 1.65 µM | GI50 (SF-295): 1.74 µM | GI50 (UACC-62): 1.81 µM | GI50 (ACHN): 1.87 µM | GI50 (OVCAR-3): 2.14 µM | GI50 (IGROV1): 1.81 µM

CN1CCCN(Cc2ccc(C(=O)Nc3cccc(Nc4ccc5cc(O)ccc5n4)c3)cc2C(F)(F)F)CC1 [Compound 18b, N-(3-((6-hydroxyquinolin-2-yl)amino)phenyl)-4-((4-methyl-1,4-diazepan-1-yl)methyl)-3-(trifluoromethyl)benzamide]
GI50 (PC-3): 13.1 µM | GI50 (MDA-MB-231/ATCC): 13.9 µM | GI50 (MDA-MB-468): 8.88 µM | GI50 (TK-10): 18.5 µM | GI50 (KM12): 14.1 µM | GI50 (T-47D): 15.8 µM | GI50 (DU-145): 16.9 µM | GI50 (A549/ATCC): 16.2 µM | GI50 (HT29): 13.3 µM | GI50 (HS 578T): 14.8 µM | GI50 (SNB-19): 17 µM | GI50 (HOP-92): 10.4 µM | GI50 (SK-OV-3): 17.6 µM | GI50 (SF-268): 17.3 µM | GI50 (HCC-2998): 16.5 µM | GI50 (OVCAR-5): 15.3 µM | GI50 (SNB-75): 1.17 µM | GI50 (HOP-62): 17.8 µM | GI50 (NCI-H23): 16.8 µM | GI50 (OVCAR-8): 18.9 µM | GI50 (CAKI-1): 14.1 µM | GI50 (SN12C): 17.3 µM | GI50 (MDA-MB-435): 10.4 µM | GI50 (MALME-3M): 12.6 µM | GI50 (SW-620): 14.5 µM | GI50 (LOX IMVI): 12.1 µM | GI50 (OVCAR-4): 15 µM | GI50 (EKVX): 16 µM | GI50 (U251): 14.8 µM | GI50 (M14): 12.7 µM | GI50 (MOLT-4): 2.05 µM | GI50 (RXF 393): 12.5 µM | GI50 (UACC-257): 14.7 µM | GI50 (RPMI-8226): 11.4 µM | GI50 (COLO 205): 18.5 µM | GI50 (UO-31): 15.2 µM | GI50 (HL-60(TB)): 11.9 µM | GI50 (SF-295): 17.3 µM | GI50 (UACC-62): 15.9 µM | GI50 (ACHN): 19.7 µM | GI50 (OVCAR-3): 16.3 µM | GI50 (IGROV1): 17.2 µM
